{"source": "patent US9249123B2", "about": "“Pyridinones/pyrazinones, method of making, and method of use thereof” (Genentech, Inc., priority 2010, dated 2016)", "note": "pEC50, pIC50: −log10 of the molar value."}
{"biological_target": "full length human wildtype Btk (Homo sapiens (Human), UniProt Q06187)", "sequence (Q06187 whole entry)": "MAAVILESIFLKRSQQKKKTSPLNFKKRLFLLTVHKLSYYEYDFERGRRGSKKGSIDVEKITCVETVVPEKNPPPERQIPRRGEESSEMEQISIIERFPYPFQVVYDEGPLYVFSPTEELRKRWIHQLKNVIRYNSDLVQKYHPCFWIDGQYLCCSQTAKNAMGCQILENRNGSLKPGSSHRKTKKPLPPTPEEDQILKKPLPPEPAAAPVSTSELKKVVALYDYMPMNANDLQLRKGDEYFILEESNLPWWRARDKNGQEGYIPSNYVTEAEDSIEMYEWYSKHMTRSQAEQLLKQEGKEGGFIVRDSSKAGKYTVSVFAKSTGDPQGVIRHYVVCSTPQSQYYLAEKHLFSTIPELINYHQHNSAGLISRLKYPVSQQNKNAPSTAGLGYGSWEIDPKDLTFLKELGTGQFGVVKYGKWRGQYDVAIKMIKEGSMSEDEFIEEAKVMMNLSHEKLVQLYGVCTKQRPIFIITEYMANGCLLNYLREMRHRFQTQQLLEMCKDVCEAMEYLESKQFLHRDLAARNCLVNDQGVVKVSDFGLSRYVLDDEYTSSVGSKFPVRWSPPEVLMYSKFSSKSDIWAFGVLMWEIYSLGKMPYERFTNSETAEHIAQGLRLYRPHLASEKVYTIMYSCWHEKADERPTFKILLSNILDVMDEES", "assay": "Biochemical Btk Assay", "details": "not given", "method": "Formula I compounds were tested by a standard biochemical Btk Kinase Assay (Example 901). A generalized procedure for a standard biochemical Btk Kinase Assay that can be used to test Formula I compounds is as follows. […] A master mix plus Btk enzyme is prepared containing 1× Cell Signaling kinase buffer, 0.5 μM PTK Biotinylated peptide substrate 2, 0.01% BSA, and 100 ng/well (0.06 mU/well) Btk enzyme. Btk enzyme is prepared as follows: full length human wildtype Btk (accession number NM-000061) with a C-terminal V5 and 6×His tag was subcloned into pFastBac vector for making baculovirus carrying this epitope-tagged Btk. Generation of baculovirus is done based on Invitrogen's instructions detailed in its published protocol “Bac-to-Bac Baculovirus Expression Systems” (Cat. Nos. 10359-016 and 10608-016). […] The Btk protein is then purified to homogeneity using Ni-NTA column. The purity of the final protein preparation is greater than 95% based on the sensitive Sypro-Ruby staining. A solution of 200 μM ATP is prepared in water and adjusted to pH7.4 with 1N NaOH. A quantity of 1.25 μL of compounds in 5% DMSO is transferred to a 96-well ½ area Costar polystyrene plate. Compounds are tested singly and with an 11-point dose-responsive curve (starting concentration is 10 μM; 1:2 dilution). A quantity of 18.75 μL of master mix minus enzyme (as a negative control) and master mix plus enzyme is transferred to appropriate wells in 96-well ½ area costar polystyrene plate. 5 μL of 200 μM ATP is added to that mixture in the 96-well ½ area Costar polystyrene plate for final ATP concentration of 40 μM. The reaction is allowed to incubate for 1 hour at room temperature. The reaction is stopped with Perkin Elmer 1× detection buffer containing 30 mM EDTA, 20 nM SA-APC, and 1 nM PT66 Ab. The plate is read using time-resolved fluorescence with a Perkin Elmer Envision using excitation filter 330 nm, emission filter 665 nm, and 2nd emission filter 615 nm. IC50 values are subsequently calculated. Alternatively, the Lanthascreen assay can be used to evaluate Btk activity through quantification of its phosphorylated peptide product. The FRET (Fluorescence Resonance Energy Transfer) that occurs between the fluorescein on the peptide product and the terbium on the detection antibody decreases with the addition of inhibitors of Btk that reduce the phosphorylation of the peptide. […] The reaction is initiated by the addition of ATP to 25 uM (Km of ATP). After incubation for 60 minutes at room temperature, the reaction is stopped by the addition of a final concentration of 2 nM Tb-PY20 detection antibody in 60 mM EDTA for 30 minutes at room temperature. Detection is determined on a Perkin Elmer Envision with 340 nm excitation and emission at 495 nm and 520 nm. Exemplary Btk inhibition IC50 values are in Tables and 2."}
{"smiles": "Cc1c(-c2cn(C)c(=O)c(Nc3ccc(C4NCCN(C)C4=O)cc3)n2)cccc1N1Cc2cc(C(C)(C)C)sc2C1=O", "note": "(stereo not drawn) [Compound 102, 2-tert-butyl-5-(2-methyl-3-(4-methyl-6-(4-(4-methyl-3-oxopiperazin-2-yl)phenylamino)-5-oxo-4,5-dihydro-pyrazin-2-yl)phenyl)-4H-thieno[2,3-c]pyrrol-6(5H)-one]", "pIC50": 7.94}
{"smiles": "Cc1c(-c2cn(C)c(=O)c(Nc3ccc(C4C(=O)NCCN4C)cc3)n2)cccc1N1Cc2cc(C(C)(C)C)sc2C1=O", "note": "(stereo not drawn) [Compound 104, 2-tert-butyl-5-(2-methyl-3-(4-methyl-6-(4-(1-methyl-3-oxopiperazin-2-yl)phenylamino)-5-oxo-4,5-dihydropyrazin-2-yl)phenyl)-4H-thieno[2,3-c]pyrrol-6(5H)-one]", "pIC50": 7.02}
{"smiles": "CN1CCN(C)[C@@H](c2ccc(Nc3nc(-c4ccc(F)c(N5Cc6cc(C(C)(C)C)sc6C5=O)c4F)cn(C)c3=O)cc2)C1=O", "note": "[Compound 130, 5-(3-{2-tert-butyl-6-oxo-4H,5H,6H-thieno[2,3-c]pyrrol-5-yl}-2,4-difluorophenyl)-3-({4-[(2S)-1,4-dimethyl-3-oxopiperazin-2-yl]phenyl]amino)-1-methyl-1,2-dihydropyrazin-2-one]", "pIC50": 7.47}
{"smiles": "CN1CCN(C)[C@@H](c2ccc(Nc3nc(-c4ccc(F)c(N5Cc6cc(C(C)(C)C)sc6C5=O)c4)cn(C)c3=O)cc2)C1=O", "note": "[Compound 131, 5-(3-{2-tert-butyl-6-oxo-4H,5H,6H-thieno[2,3-c]pyrrol-5-yl}-4-fluorophenyl)-3-({4-[(2S)-1,4-dimethyl-3-oxopiperazin-2-yl]phenyl}amino)-1-methyl-1,2-dihydropyrazin-2-one]", "pIC50": 7.32}
{"smiles": "Cc1c(-c2cn(C)c(=O)c(Nc3ccc(C4C(=O)NCCN4C)cc3)n2)cccc1N1Cc2cc(C(C)(C)C)sc2C1=O", "note": "(stereo not drawn) [Compound 134, 5-(3-{2-tert-butyl-6-oxo-4H,5H,6H-thieno[2,3-c]pyrrol-5-yl}-2-methylphenyl)-1-methyl-3-{[4-(1-methyl-3-oxopiperazin-2-yl)phenyl]amino}-1,2-dihydropyrazin-2-one]", "pIC50": 7.61}
{"tested_on": "CD86 surface expression on CD19+/7AAD- total mouse splenocytes stimulated with IgM", "assay": "CD86 Inhibition Assay", "type": "cell-based", "details": "Splenocyte; Balb/c mouse splenocytes, IgM stimulation, 24 hr", "method": "A CD86 Inhibition assay can be conducted on Formula I compounds for the inhibition of B cell activity using total mouse splenocytes purified from spleens of 8-16 week old Balb/c mice (Example 905).\nA generalized procedure for a standard assay for the inhibition of B cell activity that can be used to test Formula I compounds is as follows. Total mouse splenocytes are purified from spleens of 8-16 week old Balb/c mice by red blood cell lysis (BD Pharmingen #555899). Testing compounds are diluted to 0.5% DMSO and incubated with 1.25×10^6 splenocytes in a final volume of 200 μl in flat clear bottom plates (Falcon 353072) for 60 min at 37° C. Cells are then stimulated with the addition of 15 μg/ml IgM (Jackson ImmunoResearch 115-006-020), and incubated for 24 hr at 37° C., 5% CO2. Following the 24 hr incubation, cells are transferred to conical bottom clear 96-well plates and pelleted by centrifugation at 1200×g×5 min. Cells are preblocked by CD16/CD32 (BD Pharmingen #553142), followed by triple staining with CD19-FITC (BD Pharmingen #553785), CD86-PE (BD Pharmingen #553692), and 7AAD (BD Pharmingen #51-68981E). Cells are sorted on a BD FACSCalibur and gated on the CD19^+/7AAD^− population. The levels of CD86 surface expression on the gated population is measured versus test compound concentration. Exemplary results are in Table 3."}
{"smiles": "Cc1c(-c2cn(C)c(=O)c(Nc3ccc(C4C(=O)NCCN4C)cc3)n2)cccc1N1Cc2cc(C(C)(C)C)sc2C1=O", "note": "(stereo not drawn) [Compound 134, 5-(3-{2-tert-butyl-6-oxo-4H,5H,6H-thieno[2,3-c]pyrrol-5-yl}-2-methylphenyl)-1-methyl-3-{[4-(1-methyl-3-oxopiperazin-2-yl)phenyl]amino}-1,2-dihydropyrazin-2-one]", "pEC50": 5.72}
